Experimental data taken from the supplement of paper PMC11061612.

Assays:
Test in all cases: Bliss excess, mean over the matrix (fraction); higher = more synergy
SK-N-DZ (Neuroblastoma) = test system: SK-N-DZ (Neuroblastoma)
Procedure, shortened: (§1)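 Bliss excess equals the observed combination effect minus the expected value EA + EB − EA·EB, where EA and EB are the effects of each agent alone. Combination Emax is the second-highest inhibition within the matrix. Inhibition was scaled from CellTiter-Glo 2.0 luminescence, with 0 set by vehicle wells and 1 by blank wells, after 72 hours of two-drug dosing of cells plated in 1536-well plates.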

[1] = test system: NCI-H1648 (Lung Adenocarcinoma)
Procedure, shortened: as §1

[2] = test system: JURL-MK1 (Chronic Myelogenous Leukemia)
Procedure, shortened: as §1

HT-144 (Melanoma) = test system: HT-144 (Melanoma)
Procedure, shortened: as §1

[3] = test system: GRANTA-519 (B-Cell Non-Hodgkin's Lymphoma)
Procedure, shortened: as §1

[4] = test system: BC-1 (B-Cell Non-Hodgkin's Lymphoma)
Procedure, shortened: as §1

[5] = test system: L-363 (Plasma Cell Myeloma)
Procedure, shortened: as §1

[6] = test system: JJN-3 (Plasma Cell Myeloma)
Procedure, shortened: as §1

[7] = test system: SNU-1 (Gastric Carcinoma)
Procedure, shortened: as §1

[8] = test system: ATN-1 (T-Lymphoblastic Leukemia)
Procedure, shortened: as §1

[9] = test system: NCI-H2009 (Lung Adenocarcinoma)
Procedure, shortened: as §1

[10] = test system: OVKATE (Ovarian Carcinoma)
Procedure, shortened: as §1

[11] = test system: SW1463 (Colorectal Carcinoma)
Procedure, shortened: as §1

[12] = test system: IGROV-1 (Ovarian Carcinoma)
Procedure, shortened: as §1

C32 (Melanoma) = test system: C32 (Melanoma)
Procedure, shortened: as §1

[13] = test system: HT-3 (Cervical Carcinoma)
Procedure, shortened: as §1

[14] = test system: RS4-11 (B-Lymphoblastic Leukemia)
Procedure, shortened: as §1

[15] = test system: NTERA-2-cl-D1 (Other Solid Carcinomas)
Procedure, shortened: as §1

[16] = test system: SUP-HD1 (Hodgkin's Lymphoma)
Procedure, shortened: as §1

[17] = test system: C2BBe1 (Colorectal Carcinoma)
Procedure, shortened: as §1

Row | SMILES | Bliss excess (SK-N-DZ (Neuroblastoma)) | Bliss excess [1] | Bliss excess [2] | Bliss excess (HT-144 (Melanoma)) | Bliss excess [3] | Bliss excess [4] | Bliss excess [5] | Bliss excess [6] | Bliss excess [7] | Bliss excess [8] | Bliss excess [9] | Bliss excess [10] | Bliss excess [11] | Bliss excess [12] | Bliss excess (C32 (Melanoma)) | Bliss excess [13] | Bliss excess [14] | Bliss excess [15] | Bliss excess [16] | Bliss excess [17]
1 | Cn1cnc2c(F)c(Nc3ccc(Br)cc3Cl)c(C(=O)NOCCO)cc21 [Selumetinib] + CC(C)n1c(=O)n(C)c2cnc3cc(F)c(-c4ccc(OCCCN5CCCCC5)nc4)cc3c21 [AZD1390] (first compound max 10 µM, 7x7, partner max 0.3 µM) | -0.0207 | -0.0418 | -0.0296 | -0.0653 | -0.0254 | -0.0023 | -0.0252 | 0.0046 | 0.025 | -0.0318 | -0.0254 | -0.0178 | -0.0078 | -0.0204 | -0.0244 | -0.0392 | -0.0245 | 0.0052 | -0.043 | -0.05
2 | COc1nnc2ccc(N3CCC(c4ccc(OCCN5CCN(C)C(=O)[C@H]5C)cc4)CC3)nn12 [AZD5153] + CC1(C)CCC(CN2CCN(c3ccc(C(=O)NS(=O)(=O)c4ccc(NCC5CCOCC5)c([N+](=O)[O-])c4)c(Oc4cnc5[nH]ccc5c4)c3)CC2)=C(c2ccc(Cl)cc2)C1 [Venetoclax] (first compound max 1 µM, 7x7, partner max 1 µM) | 0.0059 | -0.062 | -0.0676 | -0.0488 | 0.0237 | -0.0604 | -0.101 | 0.0278 | -0.0523 | -0.0279 | -0.0432 | -0.0037 | -0.058 | -0.0416 | -0.0383 | -0.0644 | -0.0179 | -0.0251 | -0.0316 | -0.0234
3 | COc1nnc2ccc(N3CCC(c4ccc(OCCN5CCN(C)C(=O)[C@H]5C)cc4)CC3)nn12 [AZD5153] + Cn1cnc2c(F)c(Nc3ccc(Br)cc3Cl)c(C(=O)NOCCO)cc21 [Selumetinib] (first compound max 1 µM, 7x7, partner max 10 µM) | 0.0017 | 0.0093 | 0.0397 | 0.0212 | -0.0143 | -0.036 | 0.0188 | -0.0076 | 0.063 | 0.0098 | -0.0123 | -0.0413 | 0.0243 | -0.0391 | 0.0709 | 0.0276 | -0.0454 | 0.0236 | -0.0019 | 0.0114
4 | CC(=O)Nc1cccc(-n2c(=O)n(C3CC3)c(=O)c3c(Nc4ccc(I)cc4F)n(C)c(=O)c(C)c32)c1 [Trametinib] + Cc1nc(-c2cn3c(n2)-c2ccc(-c4cnn(C(C)(C)C(N)=O)c4)cc2OCC3)n(C(C)C)n1 [Taselisib] (first compound max 1 µM, 7x7, partner max 10 µM) | 0.0954 | 0.0655 | -0.0107 | 0.0234 | -0.0007 | 0.149 | 0.241 | 0.204 | 0.202 | -0.0503 | 0.151 | 0.113 | 0.04 | -0.0339 | 0.0958 | 0.12 | 0.0927 | 0.022 | 0.0392 | 0.0464
5 | NC1(C(=O)N[C@@H](CCO)c2ccc(Cl)cc2)CCN(c2ncnc3[nH]ccc23)CC1 [Capivasertib] + CC(C)n1c(=O)n(C)c2cnc3cc(F)c(-c4ccc(OCCCN5CCCCC5)nc4)cc3c21 [AZD1390] (first compound max 10 µM, 7x7, partner max 0.3 µM) | -0.0605 | -0.0077 | -0.0489 | -0.0688 | -0.0859 | -0.0175 | -0.0749 | -0.0105 | -0.079 | -0.062 | -0.0648 | -0.0549 | -0.0196 | -0.0147 | -0.0343 | -0.035 | 0.0078 | 0.0115 | -0.136 | -0.0856
6 | Cc1c2c(nn1C)CSCc1cc(n(C)n1)CSc1cc(c3ccccc3c1)OCCCc1c(C(=O)O)n(C)c3c-2c(Cl)ccc13 [AZD5991] + CN(C)CCCOc1ccc(-c2ccc3ncc4c(c3c2)n(C2CCOCC2)c(=O)n4C)cn1 [AZD0156] (first compound max 1 µM, 7x7, partner max 1 µM) | 0.0063 | -0.0433 | -0.0403 | -0.0352 | -0.0017 | 0.0274 | 0.0235 | -0.0028 | -0.0144 | 0.0058 | -0.0204 | -0.0708 | -0.0212 | -0.0297 | -0.0076 | 0.0222 | -0.0177 | -0.0123 | -0.122 | 0.0009
7 | COc1nnc2ccc(N3CCC(c4ccc(OCCN5CCN(C)C(=O)[C@H]5C)cc4)CC3)nn12 [AZD5153] + CCN(CCO)CCCOc1ccc2c(Nc3cc(CC(=O)Nc4cccc(F)c4)[nH]n3)ncnc2c1 [AZD2811] (first compound max 1 µM, 7x7, partner max 1 µM) | -0.0722 | -0.0494 | -0.0258 | 0.0216 | 0.0771 | -0.0313 | -0.0259 | 0.0098 | 0.0024 | -0.127 | -0.0155 | -0.0668 | -0.0452 | -0.0574 | 0.0199 | -0.0644 | -0.0195 | -0.0385 | -0.0586 | -0.0364
